Test results: patent publication EP1165610B1, “PEPTIDE USEFUL IN TREATING MULTIPLE SCLEROSIS AND A PHARMACEUTICAL COMPOSITION COMPRISING THE SAME” (TECNOGEN S.C.P.A., priority 1999, dated 2006)
Ends that are not written are not given here.

Test system: SJL female mice
Assay: In vivo activity in experimental allergic encephalitis (EAE) model, pre-immunization with peptide before EAE induction
Details: for Incidence of EAE: number of mice with clinical EAE/number of mice immunized, after two weeks EAE induced with 300 nmoles P81-100 in CFA plus pertussis toxin, observed day 9 up to 60
Experimental: The in vivo activity of the peptide compounds of formula (I) (SEQ ID NO: 1), were evaluated on four groups of SJL female mice, used at the age of 6-15 weeks. This strain of mice has been genetically selected for its ability to develop experimental allergic encephalitis (EAE).
Two groups of mice have been immunized intraperitoneally with the peptide compound of formula (I) (SEQ ID NO: 1) (300 nmoles), dissolved in 0.05 ml of physiological solution and then emulsified with 0.05 ml of incomplete Freund's adjuvant (IFA) (Sigma, Italy).
As positive and negative control, P81-100 (SEQ ID NO: 5) and IFA alone were used respectively.
After two weeks EAE was induced in all groups by challenge with 300 nmoles of P81-100 (SEQ ID NO: 5) dissolved in 0.1 ml of physiological solution and then emulsified with 0.1 ml of complete Freund's adjuvant (CFA) (Sigma, Italy).
Pertussis toxin (200 ng) (Fluka Chemie AG, Switzerland) was injected intravenously at the time of immunization and 2 days later. The role of pertussis toxin is to enhance the migration of autoreactive lymphocytes through the encephalic barrier (Bernard, et al., "J. Immunol." 114, 1537-1540, 1975).
Mice were observed daily beginning at day 9 up to 60 for clinical signs of EAE and were graded according to the following clinical scale: 1, limp tail; 2, partial hind limp paralysis; 3, complete hind limp paralysis; 4, hind and front limp paralysis; 5, moribund (Broke S. et al., "Nature", 379, 343-346, 1996). Grade 5 mice were euthanized.

[1] = 300 nmoles intraperitoneally in IFA

| Molecule | Day of on-set (mean day of onset ± SD, 300 nmoles intraperitoneally in IFA, after two weeks EAE induced with 300 nmoles P81-100 in CFA) | Severity (mean severity of sick mice ± SD, clinical scale 1-5, 300 nmoles intraperitoneally in IFA, after two weeks EAE induced with 300 nmoles P81-100 in CFA) | Incidence of EAE [1] | development of EAE (result in words, summary of Table 1, SJL mice treated with peptide before EAE induction) |
| --- | --- | --- | --- | --- |
| CC[C@H](C)[C@H](NC(=O)[C@H](CC(N)=O)NC(=O)[C@H](CCCCN)NC(=O)[C@H](Cc1ccccc1)NC(=O)[C@H](Cc1ccccc1)NC(=O)[C@H](Cc1c[nH]cn1)NC(=O)[C@@H](NC(=O)[C@@H](NC(=O)[C@@H]1CCCN1C(=O)[C@@H](N)CC(N)=O)C(C)C)C(C)C)C(=O)N[C@H](C(=O)N[C@H](C(=O)N1CCC[C@H]1C(=O)N[C@@H](CCCNC(=N)N)C(=O)N[C@H](C(=O)N1CCC[C@H]1C(=O)N1CCC[C@H]1C(=O)N1CCC[C@H]1C(=O)N[C@@H](CO)C(=O)N[C@@H](CCC(N)=O)C(=O)O)[C@@H](C)O)[C@@H](C)O)C(C)C [Peptide P81-100] | 33±4.24 | 1.0±0 | 2/17 | – |
| NGVGHGFGNGVGPGTGPGSG [Peptide I] | – | – | 0/17 | didn't develop EAE |
